Measured values from paper PMC6863825, “Modulating multi-functional ERK complexes by covalent targeting of a recruitment site in vivo” (Nature Communications, 2019).

Biological target: T1, ERK2 (Rattus norvegicus, UniProt P63086)
T1 construct: gene Mapk1; full-length ERK2
Test: fluorescence anisotropy displacement of FITC D-site peptide; also protein NMR, intact MS, kinact/Ki
Type: binding

T1 sequence (P63086 2-358): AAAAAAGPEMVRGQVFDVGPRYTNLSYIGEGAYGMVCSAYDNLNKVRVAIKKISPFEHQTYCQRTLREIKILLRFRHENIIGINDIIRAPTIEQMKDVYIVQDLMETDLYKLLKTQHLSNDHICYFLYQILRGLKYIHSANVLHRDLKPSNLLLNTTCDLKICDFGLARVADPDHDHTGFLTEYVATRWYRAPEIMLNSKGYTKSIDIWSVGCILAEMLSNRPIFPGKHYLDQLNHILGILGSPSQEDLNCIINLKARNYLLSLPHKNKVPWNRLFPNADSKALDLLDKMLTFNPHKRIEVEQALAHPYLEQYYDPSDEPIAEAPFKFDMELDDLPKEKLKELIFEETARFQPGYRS

Compound: O=[N+]([O-])c1cnc(Sc2nnc(O)n2-c2ccc3c(c2)OCCO3)s1 [compound 1, BI-78D3]
- Ki: 800 ± 200 nM
